Experiments:
NEP [1] = target: T1, NEP (Homo sapiens (Human), UniProt P08473); experiment: Assay 1: in vitro enzyme inhibition assay at human NEP (fluorogenic peptide substrate); type: biochemical; details: for pKi: comparative examples, exact values
Procedure: The assays were performed in 384-well white opaque plates at 37° C. using the fluorogenic peptide substrates at a concentration of 10 μM in Assay Buffer (NEP: 50 mM HEPES, pH 7.5, 100 mM NaCl, 0.01% polyethylene glycol sorbitan monolaurate (Tween-20), 10 μM ZnSO4; ACE: 50 mM HEPES, pH 7.5, 100 mM NaCl, 0.01% Tween-20, 1 μM ZnSO4).
Test compounds were assayed over the range of concentrations from 10 μM to 20 pM. Test compounds were added to the enzymes and incubated for 30 minute at 37° C. prior to initiating the reaction by the addition of substrate. Reactions were terminated after 20 minutes of incubation at 37° C. by the addition of glacial acetic acid to a final concentration of 3.6% (v/v).
Inhibition constants were obtained by nonlinear regression of the data using the equation (GraphPad Software, Inc., San Diego, Calif.): v=v0/[1+(I/K′)] where v is the reaction rate, v0 is the uninhibited reaction rate, I is the inhibitor concentration and K′ is the apparent inhibition constant.

NEP [2] = target: T1, NEP; details: change of carboxylic acid chain length versus succinic acid compound 21a; cited from earlier work

SMILES | pKi (NEP [1]) | decrease in activity relative to 21a (NEP [2]) [fold] | other results
O=C(O)CCCC(=O)N[C@H](Cc1ccc(-c2ccccc2)cc1)CC(O)C(=O)O (stereo partly drawn) [Comparative Compound E, (R)-5-Biphenyl-4-yl-4-(4-carboxybutrylamino)-2-hydroxypentanoic Acid] | 7.3 |  | 
O=C(O)CCCC(=O)N[C@H](Cc1ccc(-c2ccccc2)cc1)C[C@@H](CO)C(=O)O [Comparative Compound H, (2S,4S)-5-Biphenyl-4-yl-4-(4-carboxy-butyrylamino)-2-hydroxmethylpentanoic Acid] | 8.6 |  | 
O=C(N[C@H](Cc1ccc(-c2cccc(Cl)c2)cc1)C[C@@H](O)C(=O)O)C(=O)OCCC(F)(F)F [Example 2N, (2R,4R)-5-(3′-Chlorobiphenyl-4-yl)-2-hydroxy-4-[(3,3,3-trifluoropropoxyoxalyl)-amino]pentanoic Acid] |  |  | Ki (NEP [1]; reported as ranges): ≤ 1 nM
C[C@H](C[C@@H](Cc1ccc(-c2ccccc2)cc1)NC(=O)CCCC(=O)O)C(=O)O [Example 21e] |  | 18 | 
C[C@H](C[C@@H](Cc1ccc(-c2ccccc2)cc1)NC(=O)CCCCC(=O)O)C(=O)O [Example 21f] |  | 65 | 
C[C@H](CC(Cc1ccc(-c2ccccc2)cc1)NC(=O)CC(=O)O)C(=O)O (stereo partly drawn) [Example 21g] |  | 18 | 
